In ChEMBL document CHEMBL4425114, “Development of Novel Alkoxyisoxazoles as Sigma-1 Receptor Antagonists with Antinociceptive Efficacy” (J Med Chem, 2016):
Active and inactive are the calls of the source. No cut-off for these calls is given here.

What was measured:
[1] = target: Sigma non-opioid intracellular receptor 1 (Rattus norvegicus, UniProt Q9R0C9); assay: Displacement of [3H]-pentazocine from rat brain sigma1 receptor by PDSP assay
[2] = target: T1, Sigma intracellular receptor 2 (Rattus norvegicus, UniProt Q5U3Y7); assay: Displacement of [3H]DTG from rat brain sigma2 receptor by PDSP assay
T1 sequence (Q5U3Y7 whole entry): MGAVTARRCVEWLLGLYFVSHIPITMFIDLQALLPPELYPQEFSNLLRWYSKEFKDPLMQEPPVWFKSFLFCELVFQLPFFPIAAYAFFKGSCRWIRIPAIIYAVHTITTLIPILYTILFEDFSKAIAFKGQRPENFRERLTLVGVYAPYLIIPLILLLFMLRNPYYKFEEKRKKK

[3] = target: T2, Sigma intracellular receptor 2 (Rattus norvegicus) (UniProt Q5U3Y7); assay: Displacement of [3H]DTG from rat brain sigma2 receptor at 10 uM by PDSP assay
T2 sequence (whole entry): T1 sequence (Q5U3Y7 whole entry)

[4] = target: Sigma non-opioid intracellular receptor 1 (Cavia porcellus) (UniProt Q60492); assay: Binding affinity to sigma1 receptor form guinea pig brain membrane in presence of phenytoin […]
[5] = Permeability of the compound after 18 hrs by PAMPA assay; type: ADME; settings: read-out: permeability
[6] = target: Sigma non-opioid intracellular receptor 1 (Rattus norvegicus) (UniProt Q9R0C9); assay: Displacement of [3H]-pentazocine from rat brain sigma1 receptor at 10 uM by PDSP assay
[7] = target: T3, Sodium-dependent dopamine transporter (Homo sapiens, UniProt Q01959); assay: Displacement of [3H]-WIN35428 from human DAT expressed in HEK293 cells at 10 uM measured after 30 mins; type: cell-based
Mus musculus = assay: Antinociceptive activity in Kun Ming mouse assessed as reduction in paw licking and flinching time at 80 mg/kg, ip administered 15 mins prior to formalin challenge measured up to 45 mins post formalin dosing relative to vehicle-treated control; type: functional, organism-based
[8] = target: Sodium-dependent noradrenaline transporter (Homo sapiens, UniProt P23975); assay: Displacement of [3H]nisoxetine from human NET expressed in HEK293 cells measured after 30 mins; type: cell-based
[9] = target: T4, Sodium-dependent serotonin transporter (Homo sapiens, UniProt P31645); assay: biochemical; type: cell-based, HEK293
Target sequence in this assay (P31645 whole entry): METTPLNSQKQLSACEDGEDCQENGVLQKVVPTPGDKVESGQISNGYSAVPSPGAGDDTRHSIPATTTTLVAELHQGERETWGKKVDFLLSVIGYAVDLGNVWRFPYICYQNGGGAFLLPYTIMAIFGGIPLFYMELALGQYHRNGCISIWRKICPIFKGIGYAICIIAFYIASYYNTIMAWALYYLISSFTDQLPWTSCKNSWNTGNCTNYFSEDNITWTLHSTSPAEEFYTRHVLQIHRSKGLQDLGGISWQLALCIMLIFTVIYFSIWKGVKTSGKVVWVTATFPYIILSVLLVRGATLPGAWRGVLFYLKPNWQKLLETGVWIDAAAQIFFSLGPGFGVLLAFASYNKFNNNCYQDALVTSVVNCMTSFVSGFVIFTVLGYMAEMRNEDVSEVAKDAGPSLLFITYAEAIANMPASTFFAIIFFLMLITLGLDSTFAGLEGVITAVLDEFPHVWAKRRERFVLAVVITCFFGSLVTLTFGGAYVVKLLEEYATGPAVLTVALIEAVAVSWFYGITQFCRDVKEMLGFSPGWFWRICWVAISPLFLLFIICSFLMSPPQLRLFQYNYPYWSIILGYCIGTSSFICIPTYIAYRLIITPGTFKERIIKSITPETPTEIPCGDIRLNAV
Description: Displacement of [3H]citalopram from human SERT expressed in HEK293 cells measured after 30 mins

[10] = target: T3, Sodium-dependent dopamine transporter
Description: Displacement of [3H]-WIN35428 from human DAT expressed in HEK293 cells measured after 30 mins

[11] = target: T4, Sodium-dependent serotonin transporter; settings: HEK293, at 10 µM
Target sequence in this assay (P31645 whole entry, looked up): as the sequence (P31645 whole entry) above
Description: Displacement of [3H]citalopram from human SERT expressed in HEK293 cells at 10 uM measured after 30 mins

[12] = Toxicity in Kun Ming mouse assessed as decrease in rotarod latency at 40 mg/kg, ip measured after 60 to 120 mins by rotarod test relative to vehicle-treated control; type: organism-based; settings: in vivo

Sigma non-opioid intracellular receptor 1 (Cavia porcellus), sequence (Q60492 whole entry): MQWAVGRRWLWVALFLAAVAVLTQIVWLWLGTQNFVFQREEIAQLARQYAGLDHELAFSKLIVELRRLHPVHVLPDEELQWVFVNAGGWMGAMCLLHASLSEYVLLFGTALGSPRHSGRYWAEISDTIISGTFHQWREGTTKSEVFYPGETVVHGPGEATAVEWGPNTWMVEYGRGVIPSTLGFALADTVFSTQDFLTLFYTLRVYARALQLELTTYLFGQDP
T3 sequence (Q01959 whole entry): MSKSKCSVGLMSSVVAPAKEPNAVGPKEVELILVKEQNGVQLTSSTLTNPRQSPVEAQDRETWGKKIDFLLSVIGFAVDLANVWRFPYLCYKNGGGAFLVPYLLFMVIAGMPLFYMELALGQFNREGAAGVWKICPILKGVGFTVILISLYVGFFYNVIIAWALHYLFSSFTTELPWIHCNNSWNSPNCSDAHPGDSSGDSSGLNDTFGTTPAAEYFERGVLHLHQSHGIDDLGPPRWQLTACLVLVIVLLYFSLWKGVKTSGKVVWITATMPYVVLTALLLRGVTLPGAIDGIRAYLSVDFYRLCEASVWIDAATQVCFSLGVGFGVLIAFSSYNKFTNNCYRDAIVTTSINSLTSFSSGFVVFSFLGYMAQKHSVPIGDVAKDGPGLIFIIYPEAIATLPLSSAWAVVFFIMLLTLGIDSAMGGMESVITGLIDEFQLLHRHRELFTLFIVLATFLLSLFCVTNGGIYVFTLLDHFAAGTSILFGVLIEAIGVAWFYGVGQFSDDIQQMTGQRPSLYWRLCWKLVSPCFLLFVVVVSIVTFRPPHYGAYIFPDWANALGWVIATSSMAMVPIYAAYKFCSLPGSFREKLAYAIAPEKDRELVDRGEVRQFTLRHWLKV
Sodium-dependent noradrenaline transporter, sequence (P23975 whole entry): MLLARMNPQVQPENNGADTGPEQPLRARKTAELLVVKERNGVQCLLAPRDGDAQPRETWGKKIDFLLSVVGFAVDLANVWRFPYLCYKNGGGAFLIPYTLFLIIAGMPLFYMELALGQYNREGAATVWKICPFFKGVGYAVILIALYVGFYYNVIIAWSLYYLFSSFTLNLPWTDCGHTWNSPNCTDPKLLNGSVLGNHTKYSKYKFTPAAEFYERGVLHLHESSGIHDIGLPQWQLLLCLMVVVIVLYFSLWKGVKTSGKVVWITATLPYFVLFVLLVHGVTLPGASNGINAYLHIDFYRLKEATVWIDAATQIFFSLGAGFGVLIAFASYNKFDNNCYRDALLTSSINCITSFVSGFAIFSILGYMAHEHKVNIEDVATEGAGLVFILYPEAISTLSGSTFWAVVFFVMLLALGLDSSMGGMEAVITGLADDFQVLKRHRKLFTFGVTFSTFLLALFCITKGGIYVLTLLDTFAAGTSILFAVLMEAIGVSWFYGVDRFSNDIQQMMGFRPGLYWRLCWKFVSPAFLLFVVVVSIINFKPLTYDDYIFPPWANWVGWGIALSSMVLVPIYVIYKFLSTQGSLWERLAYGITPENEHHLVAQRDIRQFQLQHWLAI
Sigma non-opioid intracellular receptor 1 (Rattus norvegicus), sequence (Q9R0C9 whole entry): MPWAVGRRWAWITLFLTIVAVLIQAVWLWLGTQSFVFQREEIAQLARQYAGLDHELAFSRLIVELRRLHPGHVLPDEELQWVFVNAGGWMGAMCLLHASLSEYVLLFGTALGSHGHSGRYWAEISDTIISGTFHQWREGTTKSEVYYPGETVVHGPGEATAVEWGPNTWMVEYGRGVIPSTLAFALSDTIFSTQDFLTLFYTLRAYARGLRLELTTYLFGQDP
Sigma non-opioid intracellular receptor 1, sequence (Q9R0C9 whole entry): as above

CCN(C)CCOc1cc(COc2ccccc2)on1
Ki [1]: 18.4 nM | Ki [2]: 820 nM

FC(F)(F)c1ccc(OCc2cc(OC[C@@H]3CCCN3)no2)cc1
Ki [1]: 13.3 nM | Ki [2]: 91.7 nM

COc1ccc(OCc2cc(OC[C@@H]3CCCN3)no2)cc1
Ki [1]: 210 nM | Ki [2]: 675 nM

c1ccc2cc(OCc3cc(OC[C@@H]4CCCN4)no3)ccc2c1
Ki [1]: 36.6 nM | Ki [2]: 153 nM

Clc1cccc(OCc2cc(OC[C@@H]3CCCN3)no2)c1.O=C(O)C(F)(F)F
Ki [1]: 2.6 nM | Ki [2]: > 10000 nM | inhibition [3]: < 50% | Activity [4]: inactive | Papp at 18 h [5]: 2 to 4 ×10⁻⁶ cm/s

c1ccc(OCc2cc(N3CCCCC3)no2)cc1
Ki [1]: > 10000 nM | Ki [2]: > 10000 nM | inhibition [6]: < 50% | inhibition [3]: < 50%

CN(CCOc1cc(COc2cccc(Cl)c2)on1)C1CCCCC1
Ki [1]: 0.5 nM | Ki [2]: 15.1 nM

c1ccc(OCc2cc(OC[C@H]3CCCN3)no2)cc1
Ki [1]: 37.4 nM | Ki [2]: 508 nM

CN(CCOc1cc(COc2cccc(F)c2)on1)C1CCCCC1
Ki [1]: 0.5 nM | Ki [2]: 24.5 nM

CN1CCC[C@H]1COc1cc(COc2ccccc2)on1.Cl
Ki [1]: 3.4 nM | Ki [2]: 665 nM | Papp at 18 h [5]: 2 to 4 ×10⁻⁶ cm/s

Clc1ccc(OCc2cc(OC[C@@H]3CCCN3)no2)cc1
Ki [1]: 13 nM | Ki [2]: 139 nM

c1ccc(OCc2cc(OCCN3CCOCC3)no2)cc1
Ki [1]: 403 nM | Ki [2]: > 10000 nM | inhibition [3]: < 50%

c1ccc(SCc2cc(OC[C@@H]3CCCN3)no2)cc1
Ki [1]: 65.4 nM | Ki [2]: 1030 nM

O=C(Oc1ccccc1)c1cc(OC[C@@H]2CCCN2)no1
Ki [1]: > 10000 nM | Ki [2]: > 10000 nM | inhibition [6]: < 50% | inhibition [3]: < 50%

CN1CCC[C@@H]1COc1cc(COc2ccccc2)on1
Ki [1]: 23.1 nM | Ki [2]: 411 nM

O=C(Nc1ccccc1)c1cc(OC[C@@H]2CCCN2)no1
Ki [1]: 130 nM | Ki [2]: > 10000 nM | inhibition [3]: < 50%

c1ccc(OCc2cc(OC[C@@H]3CCCN3)no2)cc1
Activity [4]: inactive | Papp at 18 h [5]: 2 to 4 ×10⁻⁶ cm/s

CN(C)CCOc1cc(COc2ccccc2)on1
Ki [1]: > 10000 nM | Ki [2]: > 10000 nM | inhibition [6]: < 50% | inhibition [3]: < 50%

c1ccc(OCc2cc(OCC3CCNCC3)no2)cc1
Ki [1]: 356 nM | Ki [2]: 284 nM

Fc1ccc(C(OCCN2CCN(CCCc3ccccc3)CC2)c2ccc(F)cc2)cc1
inhibition [7]: > 50%

CN(CCOc1cc(COc2cccc(F)c2)on1)CC1CC1
Ki [1]: 0.9 nM | Ki [2]: 314 nM

Brc1cccc(OCc2cc(OC[C@@H]3CCCN3)no2)c1
Ki [1]: 3.2 nM | Ki [2]: 85.9 nM

CNCCOc1cc(COc2ccccc2)on1
Ki [1]: 80.8 nM | Ki [2]: > 10000 nM | inhibition [3]: < 50%

O=C(c1cc(OC[C@@H]2CCCN2)no1)N1CCc2ccccc21
Ki [1]: 13.9 nM | Ki [2]: > 10000 nM | inhibition [3]: < 50%

Brc1ccc(OCc2cc(OC[C@@H]3CCCN3)no2)cc1
Ki [1]: 18.3 nM | Ki [2]: 137 nM

Cc1cc(OCCN2CCOCC2)nn1-c1ccc2ccccc2c1
Activity [4]: inactive | Activity (Mus musculus): Active | Papp at 18 h [5]: 2 to 4 ×10⁻⁶ cm/s

NCCOc1cc(COc2ccccc2)on1
Ki [1]: 63.9 nM | Ki [2]: > 10000 nM | inhibition [3]: < 50%

CN1CCC(COc2cc(COc3ccccc3)on2)CC1
Ki [1]: 96.4 nM | Ki [2]: 216 nM

Cl.Fc1cccc(OCc2cc(OC[C@@H]3CCCN3)no2)c1
Ki [1]: 1.4 nM | Ki [2]: 277 nM | Activity [4]: inactive | Papp at 18 h [5]: 2 to 4 ×10⁻⁶ cm/s

CN1CCC[C@H]1COc1cc(COc2cccc(F)c2)on1
Ki [1]: 0.7 nM | Ki [2]: 687 nM

Clc1cccc(OCc2cc(N3CCNCC3)no2)c1
Ki [1]: 36.5 nM | Ki [2]: 687 nM

CN(CCOc1cc(COc2ccccc2)on1)C1CCCCC1
Ki [1]: 0.3 nM | Ki [2]: 18.7 nM | inhibition [6]: > 50% | Ki [8]: > 10000 nM | Ki [9]: > 10000 nM | inhibition [7]: < 50% | Ki [10]: > 10000 nM | inhibition [11]: < 50%

Fc1ccccc1OCc1cc(OC[C@@H]2CCCN2)no1
Ki [1]: 6 to 6.1 nM | Ki [2]: 396 nM | inhibition [6]: > 50% | Ki [8]: 1080 nM | Ki [9]: > 10000 nM | inhibition [7]: < 50% | Ki [10]: > 10000 nM | inhibition [11]: < 50%

Fc1ccc(OCc2cc(OC[C@@H]3CCCN3)no2)cc1
Ki [1]: 4.4 nM | Ki [2]: 471 nM

c1ccc(OCc2cc(N3CCOCC3)no2)cc1
Ki [1]: > 10000 nM | Ki [2]: > 10000 nM | inhibition [6]: < 50% | inhibition [3]: < 50%

CN(CCOc1cc(COc2ccccc2)on1)C1CCCC1
Ki [1]: 0.5 nM | Ki [2]: 73.7 nM

CN1CCN(c2cc(COc3ccccc3)on2)CC1
Ki [1]: 63.9 nM | Ki [2]: 2200 nM

CN(CCOc1cc(COc2cccc(Cl)c2)on1)CC1CC1
Ki [1]: 1.1 nM | Ki [2]: 123 nM

CN1CCC[C@H]1COc1cc(COc2cccc(Cl)c2)on1
Ki [1]: 1.4 nM | Ki [2]: 371 nM

CC(C)C[C@H](CN)CC(=O)O [PREGABALIN]
Activity [12]: Toxic

COc1cccc(OCc2cc(OC[C@@H]3CCCN3)no2)c1
Ki [1]: 31.1 nM | Ki [2]: > 10000 nM | inhibition [3]: < 50%

NCCCOc1cc(COc2ccccc2)on1
Ki [1]: 2310 nM | Ki [2]: > 10000 nM | inhibition [3]: < 50%

FC(F)(F)c1cccc(OCc2cc(OC[C@@H]3CCCN3)no2)c1
Ki [1]: 6.6 nM | Ki [2]: 88 nM

O=C(Nc1ccccc1)OCc1cc(OC[C@@H]2CCCN2)no1
Ki [1]: 299 nM | Ki [2]: > 10000 nM | inhibition [3]: < 50%

Cc1cccc(OCc2cc(OC[C@@H]3CCCN3)no2)c1
Ki [1]: 4 nM | Ki [2]: 341 nM

CN(CCOc1cc(COc2ccccc2)on1)C1CCC1
Ki [1]: 1.8 nM | Ki [2]: 307 nM | Activity [4]: inactive

Cl.c1ccc(OCc2cc(N3CCNCC3)no2)cc1
Ki [1]: 5.3 nM | Ki [2]: 221 nM | inhibition [6]: > 50% | Ki [8]: 163 nM | Ki [9]: > 10000 nM | inhibition [7]: > 50% | Papp at 18 h [5]: 7.36 ×10⁻⁶ cm/s | Ki [10]: 497 nM | inhibition [11]: < 50%

CCNCCOc1cc(COc2ccccc2)on1
Ki [1]: 3.7 nM | Ki [2]: 987 nM

Clc1ccccc1OCc1cc(OC[C@@H]2CCCN2)no1
Ki [1]: 2.7 nM | Ki [2]: 165 nM | inhibition [6]: > 50% | Ki [8]: 2110 nM | Ki [9]: 2950 nM | inhibition [7]: < 50% | Ki [10]: > 10000 nM | inhibition [11]: > 50%
